Where two headings read alike, the source gives them in different places.
Assays:
[1] = biological target: recombinant human CK2 (Homo sapiens (Human), UniProt P68400); experiment: CK2 assay (cell-free, 33P-ATP filter plate); format: biochemical; conditions: 10 uM; read-out: CK2 % inhib @ 10 uM
[2] = biological target: recombinant human PIM1 (Homo sapiens (Human), UniProt P11309); experiment: PIM-1 kinase activity in cell-free in vitro assay; format: biochemical; conditions: for inhibition at 0.5 µM: read-out: PIM-1: % inh 500 nM
[3] = system: HCT-116 human colorectal carcinoma cells; experiment: Cell-proliferation assay using Alamar Blue dye; format: cell-based;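 further: cells exposed to compound for about 4 days, then Alamar Blue added and dye fluorescence read after about 4 h, compared with medium-only control wells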
[4] = Homo sapiens, HCT-116, read-out: HCT-116 (uM), cell proliferation modulatory activity, HCT-116, second column
[5] = 500 nM compound, cell-free assay
[6] = Homo sapiens, HCT-116, HCT-116, first column, read-out: HCT-116 (uM), cell proliferation modulatory activity
[7] = Homo sapiens, HCT-116, read-out: HCT-116 (uM), cell proliferation modulatory activity, HCT-116, first column
[8] = Homo sapiens, HCT-116, HCT-116, second column, read-out: HCT-116 (uM), cell proliferation modulatory activity
[9] = Homo sapiens, HCT-116, read-out: HCT-116 (uM), cell proliferation modulatory activity, HCT-116, second HCT-116 column (c8)

recombinant human CK2, sequence (P68400 whole entry): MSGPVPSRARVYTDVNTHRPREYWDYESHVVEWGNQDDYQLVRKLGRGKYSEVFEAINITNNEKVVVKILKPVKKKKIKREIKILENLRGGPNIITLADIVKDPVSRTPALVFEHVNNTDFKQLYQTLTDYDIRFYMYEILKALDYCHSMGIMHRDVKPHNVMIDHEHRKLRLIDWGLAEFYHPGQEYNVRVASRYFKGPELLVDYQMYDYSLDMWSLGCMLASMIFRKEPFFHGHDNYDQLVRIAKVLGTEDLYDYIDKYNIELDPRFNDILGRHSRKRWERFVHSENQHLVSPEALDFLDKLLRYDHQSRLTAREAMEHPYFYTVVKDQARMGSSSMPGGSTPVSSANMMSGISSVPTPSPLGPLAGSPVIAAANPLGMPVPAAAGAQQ
recombinant human CK2, sequence (P67870 whole entry partner): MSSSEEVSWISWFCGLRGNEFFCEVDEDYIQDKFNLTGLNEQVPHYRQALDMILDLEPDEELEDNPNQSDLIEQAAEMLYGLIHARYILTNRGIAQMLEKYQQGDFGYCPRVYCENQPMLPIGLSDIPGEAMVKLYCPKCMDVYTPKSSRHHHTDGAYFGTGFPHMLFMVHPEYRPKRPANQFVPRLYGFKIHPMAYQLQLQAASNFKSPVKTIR
recombinant human PIM1, sequence (P11309 whole entry): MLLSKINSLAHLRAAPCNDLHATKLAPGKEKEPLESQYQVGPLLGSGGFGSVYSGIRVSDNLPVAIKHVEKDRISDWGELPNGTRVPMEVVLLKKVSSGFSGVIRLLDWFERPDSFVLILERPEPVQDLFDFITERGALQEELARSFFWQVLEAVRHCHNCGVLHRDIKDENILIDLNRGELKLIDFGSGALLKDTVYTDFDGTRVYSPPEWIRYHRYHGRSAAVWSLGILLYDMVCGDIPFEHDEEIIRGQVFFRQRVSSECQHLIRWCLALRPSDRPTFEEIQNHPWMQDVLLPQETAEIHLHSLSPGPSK

Row | SMILES | inhibition at 10 µM [1] [%] | inhibition at 0.5 µM ([2]; 500 nM compound, cell-free) [%] | other results
1 | O=c1[nH]c2ccccc2c2sccc12 | 0 | – | –
2 | COC(=O)c1ccc2c(c1)[nH]c(=O)c1ccsc12 | 17 | – | –
3 | O=C(O)c1ccc2c(c1)[nH]c(=O)c1cc(Br)sc12 | 5 | – | –
4 | CC(C)(C)OC(=O)CCNC(=O)c1ccc2c(c1)[nH]c(=O)c1ccsc12 | 8 | – | –
5 | COC(=O)CNC(=O)c1ccc2c(c1)[nH]c(=O)c1ccsc12 | 10 | – | –
6 | O=C(O)CCNC(=O)c1ccc2c(c1)[nH]c(=O)c1ccsc12 | 16 | – | –
7 | O=C(O)CNC(=O)c1ccc2c(c1)[nH]c(=O)c1ccsc12 | 12 | – | –
8 | O=C(Nc1nccs1)c1ccc2c(c1)[nH]c(=O)c1ccsc12 | 10 | – | –
9 | O=C(Nc1cccnc1)c1ccc2c(c1)[nH]c(=O)c1ccsc12 | -9 | – | –
10 | O=C(Nc1ccc(Cl)cc1)c1ccc2c(c1)[nH]c(=O)c1ccsc12 | -10 | – | –
11 | O=C(NCCc1cnc[nH]1)c1ccc2c(c1)[nH]c(=O)c1ccsc12 | 7 | – | –
12 | O=C(NCCN1CCOCC1)c1ccc2c(c1)[nH]c(=O)c1ccsc12 | -9 | – | –
13 | O=C(c1ccc2c(c1)[nH]c(=O)c1ccsc12)N1CCOCC1 | 2 | – | –
14 | CCCNC(=O)c1ccc2c(c1)[nH]c(=O)c1ccsc12 | -34 | – | –
15 | O=C(NCCc1ccccn1)c1ccc2c(c1)[nH]c(=O)c1ccsc12 | -24 | – | –
16 | COCCNC(=O)c1ccc2c(c1)[nH]c(=O)c1ccsc12 | -19 | – | –
17 | COc1ccc(CCNC(=O)c2ccc3c(c2)[nH]c(=O)c2ccsc23)cc1OC | -22 | – | –
18 | CN(C)C(=O)c1ccc2c(c1)[nH]c(=O)c1ccsc12 | 3 | – | –
19 | CC(=O)N1CCN(C(=O)c2ccc3c(c2)[nH]c(=O)c2ccsc23)CC1 | 7 | – | –
20 | O=C(NC1CC1)c1ccc2c(c1)[nH]c(=O)c1ccsc12 | 0 | – | –
21 | CC(C)(C)OC(=O)N1CCN(C(=O)c2ccc3c(c2)[nH]c(=O)c2ccsc23)CC1 | -25 | – | –
22 | COc1ccccc1CNC(=O)c1ccc2c(c1)[nH]c(=O)c1ccsc12 | 8 | – | –
23 | Cc1cc(CNC(=O)c2ccc3c(c2)[nH]c(=O)c2ccsc23)no1 | -13 | – | –
24 | COc1ccc(CNC(=O)c2ccc3c(c2)[nH]c(=O)c2ccsc23)cc1 | 1 | – | –
25 | O=C(NCc1ccccn1)c1ccc2c(c1)[nH]c(=O)c1ccsc12 | 3 | – | –
26 | O=C(NCCc1ccccc1)c1ccc2c(c1)[nH]c(=O)c1ccsc12 | 1 | – | –

Row | SMILES | inhibition at 10 µM [1] [%] | inhibition at 0.5 µM ([2]; 500 nM compound, cell-free) [%] | other results
27 | O=C(NCc1ccncc1)c1ccc2c(c1)[nH]c(=O)c1ccsc12 | -13 | – | –
28 | O=C(NCc1cccnc1)c1ccc2c(c1)[nH]c(=O)c1ccsc12 | -24 | – | –
29 | O=C(Nc1ccc(CN2CCS(=O)(=O)CC2)cc1)c1ccc2c(c1)[nH]c(=O)c1ccsc12 | -1 | – | –
30 | O=C(c1ccc2c(c1)[nH]c(=O)c1ccsc12)N1CCNCC1 | -27 | – | –
31 | NC1CCN(C(=O)c2ccc3c(c2)[nH]c(=O)c2ccsc23)CC1 | -3 | – | –
32 | O=C(Nc1ccccc1C(=O)O)c1ccc2c(c1)[nH]c(=O)c1ccsc12 | 41 | – | –
33 | NC(=O)c1ccc2c(c1)[nH]c(=O)c1ccsc12 | -14 | – | –
34 | O=c1[nH]c2cc(CO)ccc2c2sccc12 | 3 | – | –
35 | N#Cc1ccc2c(c1)[nH]c(=O)c1ccsc12 | -5 | – | –
36 | CN(C)CCNC(=O)c1cccc(Nc2nc3cc(C(=O)O)ccc3c3sccc23)c1 | – | 74.7 | IC50 ([2]; cell-free): 0.436 µM; IC50 [3, 4]: > 10 µM
37 | O=C(O)c1ccc2c(c1)nc(Nc1cccc(C(=O)NC3CC3)c1)c1ccsc12 | – | 37.5 | IC50 [3, 4]: > 10 µM
38 | CNC(=O)Cc1cccc(Nc2nc3cc(C(=O)O)ccc3c3sccc23)c1 | – | 38 | IC50 [3, 4]: > 10 µM
39 | O=C(O)c1ccc2c(c1)nc(Nc1cccc(Br)c1)c1ccsc12 | – | 57.9 | IC50 ([2]; cell-free): 0.553 µM; IC50 [3, 4]: > 10 µM
40 | O=C(O)c1ccc2c(c1)nc(Nc1cccc(Cl)c1F)c1ccsc12 | – | 27.6 | IC50 [3, 4]: > 10 µM
41 | O=C(O)c1ccc2c(c1)nc(Nc1ccc3[nH]ccc3c1)c1ccsc12 | – | 51.9 | IC50 ([2]; cell-free): 0.679 µM; IC50 [3, 4]: > 10 µM
42 | Cc1cccc(Nc2nc3cc(C(=O)O)ccc3c3sccc23)c1 | – | 59.1 | IC50 ([2]; cell-free): 0.53 µM; IC50 [3, 4]: > 10 µM
43 | O=C(O)c1ccc2c(c1)nc(Nc1ccc3cc[nH]c3c1)c1ccsc12 | – | 47.2 | IC50 [3, 4]: > 10 µM
44 | CCc1cccc(Nc2nc3cc(C(=O)O)ccc3c3sccc23)c1 | – | 51.6 | IC50 ([2]; cell-free): 0.814 µM; IC50 [3, 4]: > 10 µM
45 | O=C(O)c1ccc2c(c1)nc(Nc1cccc(I)c1)c1ccsc12 | – | 40.5 | IC50 [3, 4]: > 10 µM
46 | O=C(O)c1ccc2c(c1)nc(Nc1cccc(F)c1F)c1ccsc12 | – | 72.9 | IC50 ([2]; cell-free): 0.855 µM; IC50 [3, 4]: > 10 µM
47 | O=C(O)c1ccc2c(c1)nc(Nc1cc(F)cc(C(F)(F)F)c1)c1ccsc12 | – | 82.6 | IC50 ([2]; cell-free): 0.336 µM; IC50 [3, 4]: > 10 µM
48 | O=C(O)c1cc(F)cc(Nc2nc3cc(C(=O)O)ccc3c3sccc23)c1 | – | 51 | IC50 ([2]; cell-free): 0.521 µM; IC50 [3, 4]: > 10 µM
49 | O=C(O)c1ccc2c(c1)nc(Nc1cc(F)ccc1F)c1ccsc12 | – | 67.1 | IC50 ([2]; cell-free): 0.308 µM; IC50 [3, 4]: > 10 µM
50 | O=C(O)c1ccc2c(c1)nc(Nc1cccc(S(=O)(=O)NC3CC3)c1)c1ccsc12 | – | 75.4 | IC50 ([2]; cell-free): 0.568 µM; IC50 [3, 4]: > 10 µM
51 | Fc1cc(Cl)cc(Nc2nc3cc(-c4nnn[nH]4)ccc3c3sccc23)c1 | – | 82 | IC50 ([2]; cell-free): 0.562 µM; IC50 [3, 4]: > 10 µM
52 | C#Cc1cccc(Nc2nc3cc(-c4nnn[nH]4)ccc3c3sccc23)c1 | – | 64.6 | IC50 ([2]; cell-free): 0.716 µM; IC50 [3, 4]: > 10 µM

Row | SMILES | inhibition at 10 µM [1] [%] | inhibition at 0.5 µM ([2]; 500 nM compound, cell-free) [%] | other results
53 | O=C(O)c1ccc2c(c1)nc(Nc1cc(-c3ccccc3)[nH]n1)c1ccncc12 | – | – | inhibition at 0.5 µM [2, 5]: 56%; IC50 ([2]; cell-free assay): > 1.1 µM; IC50 ([3]; Homo sapiens, HCT-116, second HCT-116 column (c8), read-out: HCT-116 (uM) cell proliferation modulatory activity): > 10 µM
54 | COC(=O)c1ccc2c(c1)nc(Cl)c1ccsc12 [drawing 1375] | – | -30 | IC50 [3, 6]: 10 µM
55 | O=C(O)c1ccc2c(c1)nc(OCCCO)c1ccccc12 [drawing 1388] | – | 1.05 | IC50 [3, 6]: 10 µM
56 | COC(=O)c1ccc2c(c1)[nH]c(=O)c1ccncc12 [drawing 1390] | – | 0.802 | IC50 [3, 7]: 10 µM
57 | CN(C)CCNc1nc2cc(C(=O)O)ccc2c2ccccc12 [drawing 1391] | – | 35 | IC50 [3, 7]: 10 µM
58 | O=C(O)c1ccc2c(c1)nc(Nc1ccccc1)c1ccccc12 [drawing 1394] | – | 28.1 | IC50 [3, 7]: 10 µM
59 | N#Cc1ccc2c(c1)nc(Cl)c1ccsc12 [drawing 1398] | – | -20.2 | IC50 [3, 6]: 10 µM
60 | c1ccc(Nc2nc3ccccc3c3sccc23)cc1 [drawing 1399] | – | -22 | IC50 [3, 6]: 10 µM
61 | CN(C)CCNc1nc2ccccc2c2sccc12 [drawing 1400] | – | -24.2 | IC50 [3, 6]: 2.3 µM
62 | O=C(O)c1ccc2c(c1)nc(N1CCOCC1)c1ccsc12 [drawing 1401] | – | 35.7 | IC50 [3, 6]: 10 µM
63 | CN(C)CCNc1nc2cc(C#N)ccc2c2sccc12 [drawing 1429] | – | -3.84 | IC50 [3, 6]: 0.4 µM
64 | N#Cc1ccc2c(c1)nc(Nc1ccccc1)c1ccsc12 [drawing 1431] | – | -22.3 | IC50 [3, 6]: 10 µM
65 | NC(=O)c1ccc2c(c1)nc(Nc1ccccc1)c1ccsc12 [drawing 1432] | – | -38.1 | IC50 [3, 8]: 8.7 µM
66 | O=c1[nH]c(-c2ccc3c(c2)nc(Nc2ccccc2)c2ccsc23)no1 [drawing 1434] | – | 5.78 | IC50 [3, 8]: 10 µM
67 | O=c1[nH]c2cc(-c3nnn[nH]3)ccc2c2cnccc12 [drawing 1444] | – | 3.3 | IC50 [3, 8]: 15 µM
68 | Cc1cc(CNC(=O)c2cccc(Nc3nc4cc(-c5nnn[nH]5)ccc4c4sccc34)c2)no1 [drawing 1507] | – | 37.6 | IC50 [3, 4]: > 10 µM
69 | Cc1cc(CNC(=O)c2cccc(Nc3nc4cc(-c5nnn[nH]5)ccc4c4sccc34)c2)no1 [drawing 1508] | – | – | PIM-1: % inh 500 nM ([2]; 500 nM compound, cell-free): 55.402%; IC50 ([2]; cell-free): 0.581 µM; IC50 ([3]; read-out: HCT-116 (uM), cell proliferation modulatory activity, HCT-116): > 10 µM
70 | O=C(O)c1ccc2c(c1)nc(NCCc1ccccc1)c1ccncc12 [drawing 1511] | – | 80.9 | IC50 ([2]; cell-free): 0.536 µM; IC50 [3, 4]: > 10 µM
71 | O=C(O)c1ccc2c(c1)nc(NCc1ccccc1)c1ccncc12 [drawing 1557] | – | 44.4 | IC50 ([2]; cell-free): 0.675 µM; IC50 [3, 4]: > 10 µM
72 | CCOc1ncc2c(n1)c(NC1CC1)nc1cc(C(=O)O)ccc12 [drawing 1615] | – | – | inhibition at 0.5 µM [2, 5]: 11.1%; IC50 [3, 9]: > 10 µM
73 | O=C(O)c1ccc2c(c1)nc(NCc1cccnc1)c1nc(NC3CC3)ncc12 [drawing 1625] | – | – | inhibition at 0.5 µM [2, 5]: 26.9%; IC50 [3, 9]: > 10 µM
74 | O=C(O)c1ccc2c(c1)nc(NCc1ccccc1)c1nc(NC3CC3)ncc12 [drawing 1626] | – | – | inhibition at 0.5 µM [2, 5]: 25.3%; IC50 [3, 9]: > 10 µM
75 | Cc1cc(Nc2ncc3c(n2)c(Nc2ccc(F)c(Cl)c2)nc2cc(C(=O)O)ccc23)[nH]n1 [drawing 1635] | – | – | inhibition at 0.5 µM [2, 5]: 66.1%; IC50 [3, 9]: > 10 µM
76 | O=C(O)c1ccc2c(c1)nc(NC1CC1)c1ccncc12 [drawing 1639] | – | – | inhibition at 0.5 µM [2, 5]: 28.1%; IC50 [3, 9]: > 10 µM
77 | Nc1ncc2c(n1)c(NC1CC1)nc1cc(C(=O)O)ccc12 [drawing 1644] | – | – | inhibition at 0.5 µM [2, 5]: 60.1%; IC50 ([2]; cell-free assay): 0.432 µM; IC50 [3, 9]: > 10 µM
